Measured values published in patent publication US20220356186A1, “PERK INHIBITING PYRROLOPYRIMIDINE COMPOUNDS” (HiberCell, Inc., priority 2019, published 2022).
Where two headings read alike, the source gives them in different places.

Assays:
[1] = target: T1, EIF2AK3 (PERK) catalytic domain (amino acids 536-1116) (Homo sapiens, UniProt Q9NZJ5); test: PERK in vitro activity assay (isolated), TR-FRET kinase assay; assay type: biochemical; conditions: isolated PERK enzyme, 1.5 μM ATP; read-out: Biochemical IC50
T1 construct: EIF2AK3 (PERK) catalytic domain (amino acids 536-1116)
T1 sequence (Q9NZJ5 536-1116): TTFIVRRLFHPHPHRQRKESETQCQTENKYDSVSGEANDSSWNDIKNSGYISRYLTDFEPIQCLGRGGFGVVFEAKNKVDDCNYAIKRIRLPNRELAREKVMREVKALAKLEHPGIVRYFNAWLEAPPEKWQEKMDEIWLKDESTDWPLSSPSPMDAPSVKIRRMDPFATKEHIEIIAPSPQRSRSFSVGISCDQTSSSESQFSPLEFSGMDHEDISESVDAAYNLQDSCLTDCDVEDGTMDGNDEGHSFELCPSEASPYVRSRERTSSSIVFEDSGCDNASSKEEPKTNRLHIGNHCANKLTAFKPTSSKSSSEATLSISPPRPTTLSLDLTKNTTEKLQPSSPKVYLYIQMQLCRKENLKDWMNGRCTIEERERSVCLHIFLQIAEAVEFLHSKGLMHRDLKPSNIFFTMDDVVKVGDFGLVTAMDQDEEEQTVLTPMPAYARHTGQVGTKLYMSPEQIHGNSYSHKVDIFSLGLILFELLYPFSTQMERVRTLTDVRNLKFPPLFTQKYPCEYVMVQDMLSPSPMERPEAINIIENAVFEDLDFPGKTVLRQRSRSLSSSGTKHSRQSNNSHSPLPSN
Method in brief: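 TR-FRET read-out: after EDTA stop (10 mM final), Tb-labelled phospho-eIF2a antibody (2 nM) for 90 min; IC50 via 4-parameter nonlinear fit. Reaction: PERK aa 536-1116, GFP-eIF2a 100-200 nM, HEPES pH 7.5 with MgCl2/EGTA/Brij-35, 45 min, room temperature, started by enzyme.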

[2] = system: GFP-eIF2α in HEK293 cells; test: PERK cellular assay, TR-FRET in HEK293-EGFP-eIF2a cells after tunicamycin-induced ER stress; assay type: cell-based; conditions: HEK293-EGFP-eIF2a cells, tunicamycin 2 hours, read-out: Cellular eIF2α IC50
Method in brief: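 Compounds were added 30 min before a 2 h tunicamycin ([…]) challenge of lentivirally made GFP-eIF2α HEK293 cells, 5000/well; lysate TR-FRET ratio was the read-out.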

| SMILES | IC50 [1] [nM] | IC50 ([2]; Homo sapiens, HEK293, 2 h) [nM] | IC50 [2] [nM] |
| --- | --- | --- | --- |
| Cc1cccc(C(O)C(=O)Nc2ccc(-c3cn(C)c4nc(C)nc(N)c34)c(C)c2)c1 (stereo not drawn) [Example 42, N-(4-(4-amino-2,7-dimethyl-7H-pyrrolo[2,3-d]pyrimidin-5-yl)-3-methylphenyl)-2-hydroxy-2-(m-tolyl)acetamide] | 1 to 25 | 51 to 100 | – |
| CCc1cccc(C(O)C(=O)Nc2ccc(-c3cn(C)c4nc(C)nc(N)c34)c(C)c2)c1 (stereo not drawn) [Example 43, N-(4-(4-amino-2,7-dimethyl-7H-pyrrolo[2,3-d]pyrimidin-5-yl)-3-methylphenyl)-2-(3-ethylphenyl)-2-hydroxyacetamide] | 1 to 25 | – | 1 to 25 |
| CCc1cccc(C(O)C(=O)Nc2ccc(-c3cn(C)c4nc(C)nc(N)c34)c(C)c2)c1 (stereo not drawn) [Example 44, N-(4-(4-amino-2,7-dimethyl-7H-pyrrolo[2,3-d]pyrimidin-5-yl)-3-methylphenyl)-2-(3-ethylphenyl)-2-hydroxyacetamide] | 101 to 250 | – | 1000 to 2000 |
| Cc1cc(NC(=O)C(O)c2ccccc2C(F)(F)F)ccc1-c1cn(C)c2ncnc(N)c12 (stereo not drawn) [Example 45, N-(4-(4-amino-7-methyl-7H-pyrrolo[2,3-d]pyrimidin-5-yl)-3-methylphenyl)-2-hydroxy-2-(2-(trifluoromethyl)phenyl)acetamide] | 1 to 25 | 101 to 250 | – |
| Cc1nc(N)c2c(-c3ccc(NC(=O)C(O)c4ccccc4C(F)(F)F)cc3C)cn(C)c2n1 (stereo not drawn) [Example 46, N-(4-(4-amino-2,7-dimethyl-7H-pyrrolo[2,3-d]pyrimidin-5-yl)-3-methylphenyl)-2-hydroxy-2-(2-(trifluoromethyl)phenyl)acetamide] | 251 to 500 | 2000 to 3000 | – |
| Cc1cc(NC(=O)C(O)c2cccc(C(F)(F)F)c2)ccc1-c1cn(C)c2ncnc(N)c12 (stereo not drawn) [Example 48, N-(4-(4-amino-7-methyl-7H-pyrrolo[2,3-d]pyrimidin-5-yl)-3-methylphenyl)-2-hydroxy-2-(3-(trifluoromethyl)phenyl)acetamide] | 1 to 25 | – | 51 to 100 |
| Cc1nc(N)c2c(-c3ccc(NC(=O)C(O)c4cccc(C(F)(F)F)c4)cc3C)cn(C)c2n1 (stereo not drawn) [Example 51, N-(4-(4-amino-2,7-dimethyl-7H-pyrrolo[2,3-d]pyrimidin-5-yl)-3-methylphenyl)-2-hydroxy-2-(3-(trifluoromethyl)phenyl)acetamide] | 101 to 250 | – | 501 to 1000 |
| Cc1nc(N)c2c(-c3ccc(NC(=O)C(O)c4cc(F)cc(F)c4)cc3C)cn(C)c2n1 (stereo not drawn) [Example 52, N-(4-(4-amino-2,7-dimethyl-7H-pyrrolo[2,3-d]pyrimidin-5-yl)-3-methylphenyl)-2-(3,5-difluorophenyl)-2-hydroxyacetamide] | 1 to 25 | – | 1 to 25 |

Continued, in another order:

| IC50 [1] [nM] | SMILES | IC50 ([2]; Homo sapiens, HEK293, 2 h) [nM] | IC50 [2] [nM] |
| --- | --- | --- | --- |
| 1 to 25 | Cc1cccc(C(O)C(=O)Nc2ccc(-c3cn(C)c4ncnc(N)c34)c(C)c2)c1 (stereo not drawn) [Example 41, N-(4-(4-amino-7-methyl-7H-pyrrolo[2,3-d]pyrimidin-5-yl)-3-methylphenyl)-2-hydroxy-2-(m-tolyl)acetamide] | 1 to 25 | – |
| 1 to 25 | Cc1cc(NC(=O)C(O)c2cccc(C(F)(F)F)c2)ccc1-c1cn(C)c2ncnc(N)c12 (stereo not drawn) [Example 47, N-(4-(4-amino-7-methyl-7H-pyrrolo[2,3-d]pyrimidin-5-yl)-3-methylphenyl)-2-hydroxy-2-(3-(trifluoromethyl)phenyl)acetamide] | – | 1 to 25 |
| 1 to 25 | Cc1nc(N)c2c(-c3ccc(NC(=O)C(O)c4cccc(C(F)(F)F)c4)cc3C)cn(C)c2n1 (stereo not drawn) [Example 49, N-(4-(4-amino-2,7-dimethyl-7H-pyrrolo[2,3-d]pyrimidin-5-yl)-3-methylphenyl)-2-hydroxy-2-(3-(trifluoromethyl)phenyl)acetamide] | – | 26 to 50 |
| 1 to 25 | Cc1nc(N)c2c(-c3ccc(NC(=O)C(O)c4cccc(C(F)(F)F)c4)cc3C)cn(C)c2n1 (stereo not drawn) [Example 50, N-(4-(4-amino-2,7-dimethyl-7H-pyrrolo[2,3-d]pyrimidin-5-yl)-3-methylphenyl)-2-hydroxy-2-(3-(trifluoromethyl)phenyl)acetamide] | – | 1 to 25 |
